# Patent publication US8759342B2, “Benzo[1,4]oxazin-3-one, benzo[1,4]thiazin-3-one and quinolin-2-one urotensin II receptor antagonists” (Janssen Pharmaceutica NV, priority 2006, dated 2014)
# Target: T1, rat GPR14 (U-II receptor) (Rattus norvegicus, UniProt P49684)
# T1 construct: expressed in transfected cells
# T1 sequence (P49684 1-386): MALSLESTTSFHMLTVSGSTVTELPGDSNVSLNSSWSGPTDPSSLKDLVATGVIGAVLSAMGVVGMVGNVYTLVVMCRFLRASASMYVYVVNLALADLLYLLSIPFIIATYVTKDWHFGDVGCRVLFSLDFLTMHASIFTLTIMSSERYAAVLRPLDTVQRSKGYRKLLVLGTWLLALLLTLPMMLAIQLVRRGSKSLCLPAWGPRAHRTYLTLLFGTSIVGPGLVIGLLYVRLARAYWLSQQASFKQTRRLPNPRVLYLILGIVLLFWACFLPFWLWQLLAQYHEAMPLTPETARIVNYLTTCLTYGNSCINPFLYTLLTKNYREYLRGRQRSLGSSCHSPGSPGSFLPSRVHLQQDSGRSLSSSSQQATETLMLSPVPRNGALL
# Assay: Calcium flux assay (FLIPR)
# Format: cell-based
# Details: Inhibition of acetyl-cyclic[Cys-Phe-Trp-Lys-(2-Nal)-Cys]-NH2 (1 nM) induced Ca2+ mobilization (FLIPR) in CHO cells transfected with rat UII receptor; 5 min incubation
# Source text: To derive these cells, the complete coding sequence of rat […] was amplified by nested PCR from rat heart marathon-Ready cDNA. […] The PCR products were cloned into pcDNA3 (Invitrogen) digested with EcoR I and Xba I. Clones containing rat U-II receptor were verified by complete sequencing of the U-II receptor insert to ensure a lack of PCR-introduced errors. The constructed vector was transfected into CHO cells by using lipofectamine (GIBCO BRL). CHO cells with high expression of rat U-II receptor were selected and established as stable cell lines by using G418. CHO cells were seeded at 25,000 cells per well into 96-well, black-wall, clear-bottom microtiter plates 24 hrs before assay. Cells in culture media (DMEM/F12 containing 15 mM HEPES, L-glutamine, pyridoxine hydrochloride; 10% fetal bovine serum; 1 mg/mL G418 sulfate; antibiotic-antimycotic; pH 7.4) were loaded with proprietary dye, from the FLIPR Calcium Assay Kit (Molecular Devices), prepared in assay buffer (Hanks Balanced Salts Solution, 20 mM HEPES, 0.1% BSA, 2.5 mM probenecid, pH 7.4), and incubated for 1 hr at 37° C. Calcium mobilization determinations were performed at room temperature (23° C.).
row,Compound,IC50 [µM]
1,"O=C(NCc1ccccc1)c1ccccc1C1CCN(CCN2C(=O)COc3ccccc32)CC1 [Cpd 2, N-benzyl-2-{1-[2-(3-oxo-2,3-dihydro-benzo[1,4]oxazin-4-yl)-ethyl]-piperidin-4-yl}-benzamide]",7.9
2,O=C(NCCCCc1ccccc1)c1ccccc1C1CCN(CCN2C(=O)COc3ccccc32)CC1 [Cpd 4],3.1
3,"CN(Cc1ccccc1)C(=O)c1ccccc1C1CCN(CCN2C(=O)COc3ccccc32)CC1 [Cpd 5, N-benzyl-N-methyl-2-{1-[2-(3-oxo-2,3-dihydro-benzo[1,4]oxazin-4-yl)-ethyl]-piperidin-4-yl}-benzamide]",11
4,"COc1cccc(CCNC(=O)c2ccccc2C2CCN(CCN3C(=O)COc4ccccc43)CC2)c1 [Cpd 6, N-[2-(3-methoxy-phenyl)-ethyl]-2-{1-[2-(3-oxo-2,3-dihydro-benzo[1,4]oxazin-4-yl)-ethyl]-piperidin-4-yl}-benzamide]",10
5,"O=C(NCCc1ccc(Cl)cc1Cl)c1ccccc1C1CCN(CCN2C(=O)COc3ccccc32)CC1 [Cpd 7, N-[2-(2,4-dichloro-phenyl)-ethyl]-2-{1-[2-(3-oxo-2,3-dihydro-benzo[1,4]oxazin-4-yl)-ethyl]-piperidin-4-yl}-benzamide]",19
6,"O=C(NCCc1ccccc1Cl)c1ccccc1C1CCN(CCN2C(=O)COc3ccccc32)CC1 [Cpd 8, N-[2-(2-chloro-phenyl)-ethyl]-2-{1-[2-(3-oxo-2,3-dihydro-benzo[1,4]oxazin-4-yl)-ethyl]-piperidin-4-yl}-benzamide]",14
7,"O=C(NCCc1ccc(Cl)cc1)c1ccccc1C1CCN(CCN2C(=O)COc3ccccc32)CC1 [Cpd 9, N-[2-(4-chloro-phenyl)-ethyl]-2-{1-[2-(3-oxo-2,3-dihydro-benzo[1,4]oxazin-4-yl)-ethyl]-piperidin-4-yl}-benzamide]",3.2
8,"COc1ccc(CCNC(=O)c2ccccc2C2CCN(CCN3C(=O)COc4ccccc43)CC2)cc1OC [Cpd 10, N-[2-(3,4-dimethoxy-phenyl)-ethyl]-2-{1-[2-(3-oxo-2,3-dihydro-benzo[1,4]oxazin-4-yl)-ethyl]-piperidin-4-yl}-benzamide]",13
9,"O=C(NCCc1ccc(Cl)c(Cl)c1)c1ccccc1C1CCN(CCN2C(=O)COc3ccccc32)CC1 [Cpd 11, N-[2-(3,4-dichloro-phenyl)-ethyl]-2-{1-[2-(3-oxo-2,3-dihydro-benzo[1,4]oxazin-4-yl)-ethyl]-piperidin-4-yl}-benzamide]",5.4
10,"CC(Cc1ccc(Cl)cc1)NC(=O)c1ccccc1C1CCN(CCN2C(=O)COc3ccccc32)CC1 (centres unmarked) [Cpd 12, N-[2-(4-chloro-phenyl)-1-methyl-ethyl]-2-{1-[2-(3-oxo-2,3-dihydro-benzo[1,4]oxazin-4-yl)-ethyl]-piperidin-4-yl}-benzamide]",10
11,"COc1ccc(OC)c(CCNC(=O)c2ccccc2C2CCN(CCN3C(=O)COc4ccccc43)CC2)c1 [Cpd 13, N-[2-(2,5-dimethoxy-phenyl)-ethyl]-2-{1-[2-(3-oxo-2,3-dihydro-benzo[1,4]oxazin-4-yl)-ethyl]-piperidin-4-yl}-benzamide]",8
12,"COc1ccc(CCNC(=O)c2ccccc2C2CCN(CCN3C(=O)COc4ccccc43)CC2)cc1 [Cpd 14, N-[2-(4-methoxy-phenyl)-ethyl]-2-{1-[2-(3-oxo-2,3-dihydro-benzo[1,4]oxazin-4-yl)-ethyl]-piperidin-4-yl}-benzamide]",4
13,"COc1ccccc1CCNC(=O)c1ccccc1C1CCN(CCN2C(=O)COc3ccccc32)CC1 [Cpd 15, N-[2-(2-methoxy-phenyl)-ethyl]-2-{1-[2-(3-oxo-2,3-dihydro-benzo[1,4]oxazin-4-yl)-ethyl]-piperidin-4-yl}-benzamide]",8
14,"O=C(NCCc1ccc(F)cc1)c1ccccc1C1CCN(CCN2C(=O)COc3ccccc32)CC1 [Cpd 16, N-[2-(4-fluoro-phenyl)-ethyl]-2-{1-[2-(3-oxo-2,3-dihydro-benzo[1,4]oxazin-4-yl)-ethyl]-piperidin-4-yl}-benzamide]",8
15,"COc1cc(CCNC(=O)c2ccccc2C2CCN(CCN3C(=O)COc4ccccc43)CC2)cc(OC)c1 [Cpd 17, N-[2-(3,5-dimethoxy-phenyl)-ethyl]-2-{1-[2-(3-oxo-2,3-dihydro-benzo[1,4]oxazin-4-yl)-ethyl]-piperidin-4-yl}-benzamide]",7
16,"CN(CCc1ccccc1)C(=O)c1ccccc1C1CCN(CCN2C(=O)COc3ccccc32)CC1 [Cpd 18, N-methyl-2-{1-[2-(3-oxo-2,3-dihydro-benzo[1,4]oxazin-4-yl)-ethyl]-piperidin-4-yl}-N-phenethyl-benzamide]",15
17,"O=C(NCCc1ccc(F)c(F)c1)c1ccccc1C1CCN(CCN2C(=O)COc3ccccc32)CC1 [Cpd 19, N-[2-(3,4-difluoro-phenyl)-ethyl]-2-{1-[2-(3-oxo-2,3-dihydro-benzo[1,4]oxazin-4-yl)-ethyl]-piperidin-4-yl}-benzamide]",6
18,"O=C(NCCc1cc(F)cc(F)c1)c1ccccc1C1CCN(CCN2C(=O)COc3ccccc32)CC1 [Cpd 21, N-[2-(3,5-difluoro-phenyl)-ethyl]-2-{1-[2-(3-oxo-2,3-dihydro-benzo[1,4]oxazin-4-yl)-ethyl]-piperidin-4-yl}-benzamide]",9
19,"O=C(NCCc1cc(F)ccc1F)c1ccccc1C1CCN(CCN2C(=O)COc3ccccc32)CC1 [Cpd 22, N-[2-(2,5-difluoro-phenyl)-ethyl]-2-{1-[2-(3-oxo-2,3-dihydro-benzo[1,4]oxazin-4-yl)-ethyl]-piperidin-4-yl}-benzamide]",13
20,"O=C(NCCc1cccc(F)c1F)c1ccccc1C1CCN(CCN2C(=O)COc3ccccc32)CC1 [Cpd 23, N-[2-(2,3-difluoro-phenyl)-ethyl]-2-{1-[2-(3-oxo-2,3-dihydro-benzo[1,4]oxazin-4-yl)-ethyl]-piperidin-4-yl}-benzamide]",7
21,"O=C(NCC1CC1)c1ccccc1C1CCN(CCN2C(=O)COc3ccccc32)CC1 [Cpd 24, N-cyclopropylmethyl-2-{1-[2-(3-oxo-2,3-dihydro-benzo[1,4]oxazin-4-yl)-ethyl]-piperidin-4-yl}-benzamide]",12
22,"CC(CCc1ccccc1)NC(=O)c1ccccc1C1CCN(CCN2C(=O)COc3ccccc32)CC1 (centres unmarked) [Cpd 25, N-(1-methyl-3-phenyl-propyl)-2-{1-[2-(3-oxo-2,3-dihydro-benzo[1,4]oxazin-4-yl)-ethyl]-piperidin-4-yl}-benzamide]",4
23,"O=C(NC1CCc2ccccc21)c1ccccc1C1CCN(CCN2C(=O)COc3ccccc32)CC1 (centres unmarked) [Cpd 27, N-indan-1-yl-2-{1-[2-(3-oxo-2,3-dihydro-benzo[1,4]oxazin-4-yl)-ethyl]-piperidin-4-yl}-benzamide]",43
24,"CC(CNC(=O)c1ccccc1C1CCN(CCN2C(=O)COc3ccccc32)CC1)c1ccccc1 (centres unmarked) [Cpd 28, 2-{1-[2-(3-oxo-2,3-dihydro-benzo[1,4]oxazin-4-yl)-ethyl]-piperidin-4-yl}-N-(2-phenyl-propyl)-benzamide]",9
25,"CCCNC(=O)c1ccccc1C1CCN(CCN2C(=O)COc3ccccc32)CC1 [Cpd 29, 2-{1-[2-(3-oxo-2,3-dihydro-benzo[1,4]oxazin-4-yl)-ethyl]-piperidin-4-yl}-N-propyl-benzamide]",20
26,"O=C(NCCN1CCCC1)c1ccccc1C1CCN(CCN2C(=O)COc3ccccc32)CC1 [Cpd 30, 2-{1-[2-(3-oxo-2,3-dihydro-benzo[1,4]oxazin-4-yl)-ethyl]-piperidin-4-yl}-N-(2-pyrrolidin-1-yl-ethyl)-benzamide]",32
